This assay deals with T1, hMrgpMRGPRX2 (Homo sapiens, UniProt Q96LB1).
T1 construct: expressed in transfected cells
T1 sequence (Q96LB1 1-330): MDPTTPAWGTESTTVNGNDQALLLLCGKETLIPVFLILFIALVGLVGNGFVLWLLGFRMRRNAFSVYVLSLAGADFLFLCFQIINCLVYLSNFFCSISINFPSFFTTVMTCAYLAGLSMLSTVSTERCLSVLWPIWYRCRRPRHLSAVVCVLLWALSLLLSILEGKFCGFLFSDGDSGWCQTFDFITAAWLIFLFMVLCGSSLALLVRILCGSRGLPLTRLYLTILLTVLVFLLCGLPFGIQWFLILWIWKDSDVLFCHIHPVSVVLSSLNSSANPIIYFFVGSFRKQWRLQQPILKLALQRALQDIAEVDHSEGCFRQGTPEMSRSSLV
As to the kind of experiment: FLIPR intracellular calcium mobilization, antagonist activity in recombinant hMrgpMRGPRX2 expressing cells. In kind it is cell-based. The settings on record: read-out: Human MrgprX2 Antagonist pIC50 (converted). The gist of the method: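 Antagonist activity was read as inhibition of intracellular calcium mobilization (FLIPR) in recombinant cells expressing human MrgprX2. Potency was also checked in LAD-2 human mast cells with endogenous receptor, and orthologue activity in cells expressing mouse MrgprB2, mouse MrgprA1, and gerbil, Chinese hamster and cynomolgus orthologues.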
Background: Calcium flux is commonly read through the fluorescence of an indicator in the cells.
As for `CC1(C)CC(=O)N(c2ccc(Oc3ccc(F)c(F)c3)cn2)C1` [Compound E284, 1-[5-(3,4-difluorophenoxy)-2-pyridyl]-4,4-dimethyl-pyrrolidin-2-one], the IC50 was 1780 nM.

For `CC1(C)CCN(c2ccc(Oc3ccc(F)c(F)c3)cn2)C1=O` [Compound E285, 1-[5-(3,4-difluorophenoxy)-2-pyridyl]-3,3-dimethyl-pyrrolidin-2-one], the IC50 is 257 nM.

Consider `CCN(C[C@@H](O)C(F)(F)F)S(=O)(=O)Nc1ccc(Oc2ccc(F)c(F)c2)cn1` [Compound E286, 5-(3,4-difluorophenoxy)-2-[[ethyl-[(2R)-3,3,3-trifluoro-2-hydroxy-propyl]sulfamoyl]amino]pyridine], for which the IC50 is 2290 nM.

Regarding `CC(C)C(=O)Nc1ncc(Oc2cccc(F)c2)cc1O` [Compound E287, N-[5-(3-fluorophenoxy)-3-hydroxy-2-pyridyl]-2-methyl-propanamide], the IC50 was 794 nM.

Take `CC1(C)C(C(=O)Nc2ccc(Oc3cncc(F)c3)nn2)C1(C)C` [Compound E288, N-[6-[(5-fluoro-3-pyridyl)oxy]pyridazin-3-yl]-2,2,3,3-tetramethyl-cyclopropanecarboxamide]: the IC50 is 9120 nM.

Regarding `CCN(C[C@@H](O)C(F)(F)F)C(=O)Nc1cc(Oc2ccc(F)c(F)c2)ncn1` [Compound E289, 3-[6-(3,4-difluorophenoxy)pyrimidin-4-yl]-1-ethyl-1-[(2R)-3,3,3-trifluoro-2-hydroxy-propyl]urea], the IC50 was 724 nM.

Regarding `CCN(C[C@@H](O)C(F)(F)F)C(=O)Nc1cc(Oc2ccccc2F)ncn1` [Compound E290, 1-ethyl-3-[6-(2-fluorophenoxy)pyrimidin-4-yl]-1-[(2R)-3,3,3-trifluoro-2-hydroxy-propyl]urea], the IC50 is 692 nM.

In the case of `CCN(C[C@@H](O)C(F)(F)F)C(=O)Nc1cc(Oc2cccc(F)c2)ncn1` [Compound E291, 1-ethyl-3-[6-(3-fluorophenoxy)pyrimidin-4-yl]-1-[(2R)-3,3,3-trifluoro-2-hydroxy-propyl]urea], the IC50 was 891 nM.

Regarding `CC1(C)C(C(=O)Nc2ccc(Oc3cncc(F)c3)cn2)C1(C)C` [Compound E0530], the IC50 is 2 nM.
